In patent US20260240846A1, “ZAK ALPHA KINASE (MAP3K20) INHIBITORS FOR USE IN THE TREATMENT OF ANEMIA” (UNIVERSIDAD DE MURCIA, priority 2023, published 2026):

Assays:
caspase-1 [1] = test: CASP1 activity in RPS19-edited model of DBA; assay type: cell-based, human; conditions: 0.1 μM nilotinib (FIG. 14D)
Procedure: FIG. 14. Nilotinib promotes erythropoiesis in a human RPS19-edited model of DBA. RPS19 gene was edited in primary human CD34^+/CD133^+ cells with CRISPR-Cas9 technology and the cells were then differentiated with EPO for 13 days in the presence of absence of 0.1 μM nilotinib. (A) Representative flow cytometry dot plots of CD235-APC vs. CD71-FITC from control and RPS19-edited cells at 13 days of differentiation with EPO. (B) Cell surface expression of CD235A from control (mock) and RPS19-deficient cells treated with DMSO or nilotinib. (C) Percentage of mature erythrocytes (CD71^−/CD235A^+) vs. percentage of erythroid progenitors (CD71^+/CD235A^−) in RPS19-deficient cells treated with DMSO or 0.1 μM nilotinib. (D) CASP1 activity of control and RPS19-deficient cells treated with DMSO or 0.1 μM nilotinib. MFI, mean fluorescence intensity.

caspase-1 [2] = test: Caspase-1 activity assay in zebrafish larvae (Z-YVAD-AFC); assay type: in vivo, Zebrafish (Danio rerio H.)
Procedure: FIG. 6. NLRP1 is activated by phosphorylation of the linker domain after activation of ZAKα and pharmacological inhibition of this signaling pathway promotes erythropoiesis in DBA. (A-D) Number of neutrophils (A-C), and caspase-1 activity (D) in 2 dpf larvae obtained by injection of one-cell stage embryos with human NLRP1 (wild type-WT, S107A and S107D) and treated from 1 to 2 dpf by bath immersion with 1 μM nilotinib (B-D). Representative images of neutrophils (arrows) are also shown in C. (E, F) BMMCs from a DBA patient were incubated for 2 weeks in human methylcellulose complete medium at 37° C. in the presence or absence of the indicated concentrations of nilotinib, and colonies were counted using standard morphological criteria. Each dot represents one individual and the mean±SEM for each group is also shown. P values were calculated by one-way ANOVA and Tukey's multiple range test. n.s., non-significant; *P<0.05; **P<0.01; ***P<0.001; ****P<0.0001. […]
Caspase-1 activity was determined with the fluorometric substrate Z-YVAD 7-Amido-4-trifluoromethylcoumarin (Z-YVAD-AFC, caspase-1 substrate VI, Calbiochem). […] After incubation, the fluorescence of AFC released from the Z-YVAD-AFC substrate was measured with a FLUOstart spectrofluorometer (BGM, LabTechnologies) at an excitation wavelength of 405 nm and an emission wavelength of 492 nm.

[3] = system: primary CD34+/CD133+ HSPCs from healthy donors; test: Erythroid differentiation of primary CD34+/CD133+ HSPCs with EPO (flow cytometry CD235a/CD71); assay type: cell-based, human; conditions: 0.1 μM nilotinib from 3 to 7 d or 7 to 10 d of culture
Procedure: (§1) FIG. 8. Nilotinib promotes erythropoiesis of primary CD34^+/CD133^+ HSPCs from healthy donors. (A) Primary human CD34^+/CD133^+ cells were differentiated with erythropoietin (EPO) and 0.1 μM nilotinib was added from 3 to 7 d of culture and the number of life cells calculated by the trypan blue exclusion assay. (B, C) Cells were stained with anti-CD235a-APC and anti-CD71-FITC, and erythroid differentiation was then analyzed by flow cytometry. Representative dot plots at different differentiation times (B) and overlapped histogram of CD235a at 7 d and the mean fluorescence intensity (MFI) at different differentiation times (C) are shown.
as §1, with “FIG. 9.” for “FIG. 8.”, “with EPO” for “with erythropoietin (EPO)”, “from 7” for “from 3”, “to 10” for “to 7”, “at 10” for “at 7”, “shown. […]” for “shown.”

Compound: Cc1cn(-c2cc(NC(=O)c3ccc(C)c(Nc4nccc(-c5cccnc5)n4)c3)cc(C(F)(F)F)c2)cn1 [nilotinib]
- exacerbated caspase-1 activity of RPS19-deficient cells (caspase-1 [1]): reduced to control levels
- caspase-1 activation induced by NLRP1 with phosphomimetic S107D mutation (caspase-1 [2]; larvae expressing human NLRP1 S107D, 1 μM nilotinib 1 to 2 dpf): failed to reverse
- caspase-1 activation induced by wild type NLRP1 (caspase-1 [2]; larvae expressing human wild type NLRP1, 1 μM nilotinib 1 to 2 dpf): able to abrogate
- erythropoiesis of primary CD34+/CD133+ HSPCs [3]: accelerated erythropoiesis
